Measured values as given in patent US20230255966A1, “A COMBINATION OF A CBP/P300 BROMODOMAIN INHIBITOR AND AN EGFR INHIBITOR FOR USE IN TREATING EGFR-MUTANT NSCLC” (TOLREMO THERAPEUTICS AG, priority 2020, published 2023).
Read-outs that look alike come from different tables or passages of the source.

Assays:
HCC827 cells [1] = experiment: Cell counting by nuclear fluorescent staining (Hoechst33342); format: cell-based; details: for Effect on cell proliferation as single agent: absence of EGFR inhibitor (FIG. 3 left); for Anti-proliferative activity / re-growth in presence of Gefitinib: in presence of 300 nM Gefitinib (FIG. 3)
Description: Several plates were seeded, as for each time point of cell counting one plate was fixed and stained for analysis. […] Cell cultivation was continued until time of fixation and analysis for each plate. For extended time-points, medium and drugs were replenished twice weekly.
At the given time plates were washed 3 times with PBS and cells fixed with 80 μl 4% PFA for 10 min, RT. After 3 wash steps with PBS cells were stained with 10 μg/ml Hoechst33342 (Thermo Scientific H12492) in 100 μl PBS for 2 h, RT, dark. After 3× PBS washing-steps, Hoechst33342 signals were acquired on in an automated imaging mode using a Zeiss Apotome with motorized X/Y stage and a 5× objective. Image analysis and determination of Hoechst33342 spots (nuclei) was done using ImageJ. Number of nuclei was plotted as function of time using GraphPad Prism.

HCC827 cells [2] = experiment: Gene expression analysis (qPCR of ALPP and HOPX); format: cell-based; details: HCC827, 1 μM CBP/p300 inhibitor in presence of Gefitinib, 24 h
Description: (§1) Equal amount of cDNA was then subjected to qPCR analysis using the Kapa SYBR fast kit (KK4611) in a 384 well format in a Roche Light Cycler 480. Gene expression of genes was evaluated by subtraction of housekeeping gene CT-values (b-Actin) from CT of the genes of interest, and by calculating the ΔΔCT by subtracting the DMSO control value from sample of interest to finally calculate fold change differences of treated versus control treated sample.
(§2) Data is from 2 independent experiments with qPCRs in duplicate (mean±SEM) (FIG. 1C-D).

NCI-H1975 cells [3] = experiment: Gene expression analysis (qPCR of ALPP and HOPX); format: cell-based; details: 24 h; for EGFR inhibitor induced gene expression (ALPP, HOPX): NCI-H1975, 1 μM CBP/p300 inhibitor in presence of 20 nM osimertinib
Description: as §1, §2

NCI-H1975 cells [4] = experiment: Label-free determination of cell proliferation (CELIGO); format: cell-based
HCC827 cells [5] = experiment: as above; format: cell-based; details: for Development of drug resistance / re-growth: HCC827, combined with 100 nM osimertinib; for Development of drug resistance / re-growth / Effect on cell proliferation on their own: 21 days (FIG. 9); for Effect on cell proliferation on their own: HCC827, single agent (1 μM Compound A, 0.2 μM Compound C, 0.2 μM CCS1477, 1 μM FT-6876, 0.2 μM GNE-781)
HCC4006 cells = experiment: as above; details: for Development of drug resistance / re-growth: HCC4006, combined with 100 nM osimertinib; for Development of drug resistance / re-growth / Effect on cell proliferation on their own: 21 days (FIG. 10); for Effect on cell proliferation on their own: HCC4006, single agent (1 μM Compound A, 0.2 μM Compound C, 0.2 μM CCS1477, 1 μM FT-6876, 0.2 μM GNE-781)
Description: 2000 HCC4006 (ATCC; CRL2871) were seeded into 96 well plates (Greiner BioOne 655090) one day prior to drug treatment in RPMI medium containing 10% FCS and 2 mM L-Glutamine. The next day wells were imaged label-free using brightfield imaging on a CELIGO Image Cytometer to determine the initial cell number. Subsequently cells were treated with either DMSO, with single drugs (osimertinib and each of the CBP/p300 bromodomain inhibitors) or drug combinations of 100 nM osimertinib and one CBP/p300 bromodomain inhibitor with drug concentrations given below. Plates were regularly imaged over weeks using brightfield mode (CELIGO Imaging Cytometer) to track cell proliferation in each well over time. Growth medium and treatments were replenished twice weekly. […] Cell numbers were determined using CELIGO software's built-in “direct cell counting” analysis tool in the brightfield mode.

NCI-H1975 xenografts = experiment: NCI-H1975 xenograft tumor growth; format: in vivo, NMRI-Nude mice; details: 2 mg/kg osimertinib alone
Description: Tumor volume was measured using a manual caliper two to three times a week. The tumor volume was calculated using the formula: lager tumor diameter x square of the smaller tumor diameter divided by 2. Based on a linear fit of the mean tumor volumes the slopes of the curves were compared by regression analysis (two-tailed).
(§3) The response was determined by comparing tumor volume change at time t to its baseline: % tumor volume change=ΔVolt=100%×((Vt−Vinitial)/Vinitial). The Best Response was the minimum value of ΔVolt for t≥10 d. For each time t, the average of ΔVolt from t=0 to t was also calculated. The BestAvgResponse is defined as the minimum value of this average for t≥10 d. This metric captures a combination of speed, strength and durability of response into a single value. […] Mice that were sacrificed because of an adverse event before they had completed 14 d on trial were removed from the data set.
as §3, with “ΔVolt for t≥6 d. For” for “ΔVolt for t≥10 d. For”

[6] = NCI-H1975, 50 nM osimertinib alone (FIG. 5)

## CC(=O)N1C[C@H](c2nc(Nc3ccc4[nH]ncc4c3)cc(-c3cccnc3)n2)CC[C@@H]1C [Compound 00030]
HCC827 cells [1]
  Effect on cell proliferation as single agent: absence of an anti-proliferative effect
  Anti-proliferative activity / re-growth in presence of Gefitinib: potentiate the effect of the EGFR inhibitor

## CNC(=O)Nc1ccc2c(c1)CC[C@@]21OC(=O)N(CC(=O)N(Cc2ccc(F)cc2)[C@@H](C)C(F)(F)F)C1=O [Compound A-485]
HCC827 cells [1]
  Effect on cell proliferation as single agent: affect cell proliferation
HCC827 cells [2]
  EGFR inhibitor induced gene expression (ALPP, HOPX): reverse EGFR inhibitor induced gene expression
NCI-H1975 cells [3]
  EGFR inhibitor induced gene expression (ALPP, HOPX): reverse EGFR inhibitor induced gene expression

## COc1cncc(-c2cc(Nc3cccc(F)c3)nc([C@@H]3CC[C@H](C)N(C(C)=O)C3)n2)c1 [Compound A]
NCI-H1975 cells [4]; NCI-H1975, 50 nM osimertinib with 2.0, 0.5 or 0.125 μM co-treatment (FIG. 5)
  Growth long-term: delayed
NCI-H1975 cells [4]; NCI-H1975, 2 μM single agent (FIG. 5)
  Effect on cell numbers on their own: no/weak effect on cell numbers
HCC827 cells [5]; HCC827, 300 nM Gefitinib + 1 μM Compound A, >22 days (FIG. 4)
  Re-growth in long-term cultures: significantly delays or completely prevents re-grow
HCC827 cells [5]; HCC827, 1 μM Compound A alone (FIG. 4)
  Effect on cell numbers on its own: weak/no effect on cell numbers
HCC827 cells [5]
  Development of drug resistance / re-growth: prevent the development of drug resistance
HCC827 cells [1]; in combination with 20 nM Gefitinib (FIG. 2A)
  Re-growth under continuous Gefitinib exposure: Re-growth is inhibited
HCC827 cells [1]
  Anti-proliferative activity / re-growth in presence of Gefitinib: potentiate the effect of the EGFR inhibitor
HCC827 cells [2]
  EGFR inhibitor induced gene expression (ALPP, HOPX): reverse EGFR inhibitor induced gene expression
NCI-H1975 cells [3]
  EGFR inhibitor induced gene expression (ALPP, HOPX): reverse EGFR inhibitor induced gene expression

## COC(=O)N1c2ccc3c(nc(Cc4ccccc4)n3[C@H]3CCC[C@H](C(=O)O)C3)c2CC[C@@H]1C [FT-6876]
HCC4006 cells
  Development of drug resistance / re-growth: prevent the development of drug resistance
  Effect on cell proliferation on their own: do not affect cell proliferation
HCC827 cells [5]
  Development of drug resistance / re-growth: prevent the development of drug resistance
  Effect on cell proliferation on their own: do not affect cell proliferation

## CNC(=O)N1CCc2c(c(N3CCCc4cc(-c5cnn(C)c5)c(C(F)F)cc43)nn2C2CCOCC2)C1 [GNE-781]
HCC4006 cells
  Development of drug resistance / re-growth: prevent the development of drug resistance
  Effect on cell proliferation on their own: do not affect cell proliferation
HCC827 cells [5]
  Development of drug resistance / re-growth: prevent the development of drug resistance
  Effect on cell proliferation on their own: do not affect cell proliferation

## COc1cc2ncnc(Nc3ccc(F)c(Cl)c3)c2cc1OCCCN1CCOCC1 [Gefitinib]
HCC4006 cells; HCC4006, 300 nM Gefitinib alone (FIG. 8)
  Cell proliferation, initial: initially completely blocks cell proliferation
HCC4006 cells; HCC4006, 300 nM Gefitinib only (FIG. 8)
  Re-growth in long-term cultures: HCC4006 cells re-grow if treated with Gefitinib only

## O=C1[C@H](Cc2ccc(O)cc2)N2C(=O)CCN(C(=O)NCc3ccccc3)[C@H]2CN1Cc1cccc2ccccc12 [ICG-001]
HCC827 cells [2]
  EGFR inhibitor induced gene expression (ALPP, HOPX): does not blunt EGFR-induced gene expression
NCI-H1975 cells [3]
  EGFR inhibitor induced gene expression (ALPP, HOPX): does not blunt EGFR-induced gene expression

## COc1ccc(CCc2nc3cc(-c4c(C)noc4C)ccc3n2C[C@H](C)N2CCOCC2)cc1Cl [SGC-CBP30]
HCC827 cells [1]
  Effect on cell proliferation as single agent: do not affect cell proliferation
  Anti-proliferative activity / re-growth in presence of Gefitinib: potentiate the effect of the EGFR inhibitor

## C=CC(=O)Nc1cc(Nc2nccc(-c3cn(C)c4ccccc34)n2)c(OC)cc1N(C)CCN(C)C [osimertinib]
NCI-H1975 xenografts
  Slope of linear regression fit of mean tumor volumes over time: +6.4
HCC4006 cells; HCC4006, 100 nM osimertinib alone (FIG. 10)
  Cell proliferation, initial: initially blocks cell proliferation
HCC4006 cells; HCC4006, 100 nM osimertinib only (FIG. 10)
  Re-growth in long-term cultures: HCC4006 cells re-grow if treated with osimertinib only
NCI-H1975 cells [4]; [6]
  Cell proliferation, initial: initially blocks cell proliferation
  Growth long-term: cells continue growing with a slow rate
HCC827 cells [5]
  Cell proliferation, initial: initially blocks cell proliferation
  Re-growth in long-term cultures: HCC827 cells re-grow if treated with osimertinib only
NCI-H1975 cells [3]; NCI-H1975, EGFR inhibitor (20 nM osimertinib) alone
  ALPP and HOPX gene expression: upregulation of example genes ALPP and HOPX
